This is an account of results in patent US9156827B2, “Anticancer agent” (THE UNIVERSITY OF TOKYO, priority 2010, dated 2015).

For one assay, the target named is pim-1 kinase (Homo sapiens, UniProt P11309). As to the kind of experiment: Measurement of pim-1 kinase inhibitory activity (fluorescent substrate peptide, capillary electrophoresis). The assay is classed as biochemical. Conditions: 0.1 μM of each compound, 30 μM ATP, 1.5 μM substrate peptide, room temperature 2 hours. As for the experimental part:
Measurement of Pim-1 Kinase Inhibitory Activity
The result of the reaction was determined by quantifying the substrate and the phosphorylated reaction product separated by capillary electrophoresis based on difference in charges of the substances (EZ Reader II, Caliper Life Sciences, was used).

Assay [1] has as its system Human acute myeloid leukemia MV4-11 cells. As to the kind of experiment: Cell proliferation-suppressing activity, chromogenic method (Cell Counting Kit-8). It counts as cell-based. The conditions noted are these: compound 1 μM, 48 hours, Cell Counting Kit-8, absorbance 450 nm. As for the experimental part:
Measurement of Cell Proliferation-Suppressing Activity (Chromogenic Method)
Human acute myeloid leukemia MV4-11 cells (2×10^4 cells) are inoculated on a 96-well microtiter plate. Each compound is added at a final concentration of 1 μM on the next day, and the cells are cultured for additional 48 hours. Absorbance is measured at 450 nm by using Cell Counting Kit-8 (Nacalai Tesque) to calculate the cell proliferation-suppressing activity.

Sequence of pim-1 kinase (P11309 whole entry): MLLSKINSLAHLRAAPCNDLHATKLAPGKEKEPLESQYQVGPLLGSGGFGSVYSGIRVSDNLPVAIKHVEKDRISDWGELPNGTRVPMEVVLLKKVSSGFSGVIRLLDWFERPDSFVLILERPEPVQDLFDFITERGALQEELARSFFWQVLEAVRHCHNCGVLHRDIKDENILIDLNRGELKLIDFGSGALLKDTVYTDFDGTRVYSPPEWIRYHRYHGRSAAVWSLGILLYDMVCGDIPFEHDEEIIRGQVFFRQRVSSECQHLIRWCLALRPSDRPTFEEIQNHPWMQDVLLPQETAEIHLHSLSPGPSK

On pim-1 kinase (Table 2), `COc1ccc2c(c1CC1CCNCC1)O/C(=C\c1n[nH]c3ccccc13)C2=O` [Compound B54, (Z)-2-[(1H-Indazol-3-yl)methylene]-6-methoxy-7-(piperidin-4-ylmethyl)benzofuran-3(2H)-one] had an inhibition at 0.1 µM of 98%. Moreover, in assay [1] (Table 7), the inhibition at 1 µM stood at 97%.

In the case of `COc1ccc2c(c1C#CCCN1CCNCC1)O/C(=C\c1n[nH]c3ccccc13)C2=O` [Compound B49, (Z)-2-[(1H-Indazol-3-yl)methylene]-6-methoxy-7-[4-(piperazin-1-yl)but-1-ynyl]benzofuran-3(2H)-one], the inhibition at 0.1 µM on pim-1 kinase (Table 2) came to 63%. Also, in assay [1] (Table 7), the inhibition at 1 µM is 93%.

On to `COc1ccc2c(c1CCCC1CCNCC1)O/C(=C\c1n[nH]c3ccccc13)C2=O` [Compound B60, (Z)-2-[(1H-Indazol-3-yl)methylene]-6-methoxy-7-[3-(piperidin-4-yl)propyl]benzofuran-3(2H)-one], for which the inhibition at 0.1 µM against pim-1 kinase (Table 2) turned out to be 95%. In assay [1] (Table 7), this compound displayed an inhibition at 1 µM of 98%.

The compound `CCOc1ccc2c(c1CN1CCNCC1)O/C(=C\c1c[nH]c3ccccc13)C2=O` [Compound A59, (Z)-2-[(1H-Indol-3-yl)methylene]-6-ethoxy-7-(piperazin-1-ylmethyl)benzofuran-3(2H)-one] yielded an inhibition at 0.1 µM against pim-1 kinase (Table 1) of 92%. Moreover, in assay [1] (Table 6), testing at 1 µM gave an inhibition of 95%.

Compound `O=C1/C(=C/c2n[nH]c3ncccc23)Oc2c1ccc(O)c2CN1CCNCC1` [Compound B68, (Z)-2-[(1H-Pyrazolo[3,4-b]pyridin-3-yl)methylene]-6-hydroxy-7-(piperazin-1-ylmethyl)benzofuran-3(2H)-one] yielded an inhibition at 0.1 µM on pim-1 kinase (Table 2) of 93%. In addition, testing at 1 µM in assay [1] (Table 7) gave an inhibition of 52%.

`COc1ccc2c(c1C1=CCNCC1)O/C(=C\c1n[nH]c3ccccc13)C2=O` [Compound B52, (Z)-2-[(1H-Indazol-3-yl)methylene]-6-methoxy-7-(1,2,3,6-tetrahydropyridin-4-yl)benzofuran-3(2H)-one] returned an inhibition at 0.1 µM on pim-1 kinase (Table 2) of 50%. In assay [1] (Table 7), this compound gave an inhibition at 1 µM of 98%.

The compound `COc1ccc2c(c1/C=C\CCN1CCNCC1)O/C(=C\c1n[nH]c3ccccc13)C2=O` [Compound B50, (Z)-2-[(1H-Indazol-3-yl)methylene]-6-methoxy-7-[(Z)-4-(piperazin-1-yl)but-1-enyl]benzofuran-3(2H)-one] displayed an inhibition at 0.1 µM at pim-1 kinase (Table 2) of 82%. This compound also showed an inhibition at 1 µM in assay [1] (Table 7) of 96%.

In the case of `COc1ccc2c(c1CC1CCNCC1)O/C(=C\c1n[nH]c3ncccc13)C2=O` [Compound B71, (Z)-2-[(1H-Pyrazolo[3,4-b]pyridin-3-yl)methylene]-6-methoxy-7-(piperidin-4-ylmethyl)benzofuran-3(2H)-one], 0.1 µM produced 95% inhibition on pim-1 kinase (Table 2). The compound further showed an inhibition at 1 µM in assay [1] (Table 7) of 100%.

As for `COc1ccc2c(c1/C=C\CN1CCNCC1)O/C(=C\c1n[nH]c3ccccc13)C2=O` [Compound B47, (Z)-2-[(1H-Indazol-3-yl)methylene]-6-methoxy-7-[(Z)-3-(piperizin-1-yl)prop-1-enyl]benzofuran-3(2H)-one (Z)-2-[(1H-Indazol-3-yl)methylene]-6-methoxy-7-[(Z)-3-(piperazin-1-yl)prop-1-enyl]benzofuran-3(2H)-one], testing at 0.1 µM at pim-1 kinase (Table 2) gave an inhibition of 84%. Moreover, the inhibition at 1 µM in assay [1] (Table 7) came out at 99%.

Turning to `O=C1/C(=C/c2n[nH]c3ccccc23)Oc2c(CN3CCNCC3)cccc21` [Compound B45, (Z)-2-[(1H-Indazol-3-yl)methylene]-7-(piperazin-1-ylmethyl)benzofuran-3(2H)-one], the inhibition at 0.1 µM against pim-1 kinase (Table 2) amounted to 79%. This compound returned an inhibition at 1 µM in assay [1] (Table 7) of 28%.

On to `O=C1/C(=C/c2n[nH]c3ncccc23)Oc2c(CN3CCNCC3)cccc21` [Compound B70, (Z)-2-[(1H-Pyrazolo[3,4-b]pyridin-3-yl)methylene]-7-(piperazin-1-ylmethyl)benzofuran-3(2H)-one], for which 0.1 µM produced 94% inhibition against pim-1 kinase (Table 2). In assay [1] (Table 7), testing at 1 µM gave an inhibition of 77%.

Take `COc1ccc2c(c1CCCCN1CCNCC1)O/C(=C\c1n[nH]c3ccccc13)C2=O` [Compound B51, (Z)-2-[(1H-Indazol-3-yl)methylene]-6-methoxy-7-[4-(piperazin-1-yl)butyl]benzofuran-3(2H)-one]: the inhibition at 0.1 µM against pim-1 kinase (Table 2) turned out to be 86%. In assay [1] (Table 7), the inhibition at 1 µM worked out at 94%.

On to `COc1ccc2c(c1C#CCC1CCNCC1)O/C(=C\c1n[nH]c3ccccc13)C2=O` [Compound B58, (Z)-2-[(1H-Indazol-3-yl)methylene]-6-methoxy-7-[3-(piperidin-4-yl)prop-1-ynyl]benzofuran-3(2H)-one], for which at 0.1 µM the inhibition on pim-1 kinase (Table 2) was 90%. This compound showed an inhibition at 1 µM in assay [1] (Table 7) of 94%.

As for `O=C1/C(=C/c2c[nH]c3ccccc23)Oc2c1ccc(O)c2CN1CCCNCC1` [Compound A55, (Z)-7-[(1,4-Diazepan-1-yl)methyl]-2-[(1H-indol-3-yl)methylene]-6-hydroxybenzofuran-3(2H)-one], on pim-1 kinase (Table 1), the inhibition at 0.1 µM came to 46%. For the same compound, in assay [1] (Table 6), the inhibition at 1 µM is 79%.

Turning to `O=C1/C(=C/c2c[nH]c3ccccc23)Oc2c1ccc(OCc1ccccc1)c2CN1CCNCC1` [Compound A61, (Z)-2-[(1H-Indol-3-yl)methylene]-6-(benzyloxy)-7-(piperazin-1-ylmethyl)benzofuran-3(2H)-one], at pim-1 kinase (Table 1), testing at 0.1 µM gave an inhibition of 66%. In addition, in assay [1] (Table 6), testing at 1 µM gave an inhibition of 58%.

For the compound `COc1c(F)cc2c(c1CCC1CCNCC1)O/C(=C\c1n[nH]c3ccccc13)C2=O` [Compound B66, (Z)-2-[(1H-Indazol-3-yl)methylene]-5-fluoro-6-methoxy-7-[2-(piperidin-4-yl)ethyl]benzofuran-3(2H)-one], at pim-1 kinase (Table 2), the inhibition at 0.1 µM came out at 89%. The same compound registered an inhibition at 1 µM in assay [1] (Table 7) of 88%.

On to `COc1ccc2c(c1/C=C/CC1CCNCC1)O/C(=C\c1n[nH]c3ccccc13)C2=O` [Compound B65, (Z)-2-[(1H-Indazol-3-yl)methylene]-6-methoxy-7-[(E)-3-(piperidin-4-yl)prop-1-enyl]benzofuran-3(2H)-one], for which, at pim-1 kinase (Table 2), 0.1 µM produced 73% inhibition. In assay [1] (Table 7), this compound had an inhibition at 1 µM of 97%.

On to `COc1ccc2c(c1C#CC(C)(C)N1CCNCC1)O/C(=C\c1n[nH]c3ccccc13)C2=O` [Compound B67, (Z)-2-[(1H-Indazol-3-yl)methylene]-6-methoxy-7-[3-methyl-3-(piperazin-1-yl)but-1-ynyl]benzofuran-3(2H)-one], for which the inhibition at 0.1 µM at pim-1 kinase (Table 2) was determined as 46%. In addition, at 1 µM the inhibition in assay [1] (Table 7) was 96%.

On pim-1 kinase (Table 2), `COc1ccc2c(c1CCC1CCNCC1)O/C(=C\c1n[nH]c3ccccc13)C2=O` [Compound B57, (Z)-2-[(1H-Indazol-3-yl)methylene]-6-methoxy-7-[2-(piperidin-4-yl)ethyl]benzofuran-3(2H)-one] had an inhibition at 0.1 µM of 89%. In assay [1] (Table 7), this compound gave an inhibition at 1 µM of 99%.

Consider `COc1ccc2c(c1CN1CCNCC1)O/C(=C\c1cn(S(=O)(=O)c3ccc(C)cc3)c3ccccc13)C2=O` [Compound A57, (Z)-6-Methoxy-7-(piperazin-1-ylmethyl)-2-[(1-tosyl-1H-indol-3-yl)methylene]benzofuran-3(2H)-one], for which testing at 0.1 µM against pim-1 kinase (Table 1) gave an inhibition of 28%. This compound returned an inhibition at 1 µM in assay [1] (Table 6) of 37%.

For the compound `COc1ccc2c(c1/C=C\CCC1CCNCC1)O/C(=C\c1n[nH]c3ccccc13)C2=O` [Compound B62, (Z)-2-[(1H-Indazol-3-yl)methylene]-6-methoxy-7-[(Z)-4-(piperidin-4-yl)but-1-enyl]benzofuran-3(2H)-one], the inhibition at 0.1 µM against pim-1 kinase (Table 2) was determined as 71%. In addition, in assay [1] (Table 7), testing at 1 µM gave an inhibition of 93%.

Compound `COc1ccc2c(c1/C=C\CC1CCNCC1)O/C(=C\c1n[nH]c3ccccc13)C2=O` [Compound B59, (Z)-2-[(1H-Indazol-3-yl)methylene]-6-methoxy-7-[(Z)-3-(piperidin-4-yl)prop-1-enyl]benzofuran-3(2H)-one] yielded an inhibition at 0.1 µM at pim-1 kinase (Table 2) of 96%. This compound showed an inhibition at 1 µM in assay [1] (Table 7) of 55%.

In the case of `COc1ccc2c(c1C#CC1CCNCC1)O/C(=C\c1n[nH]c3ccccc13)C2=O` [Compound B55, (Z)-2-[(1H-Indazol-3-yl)methylene]-6-methoxy-7-(piperidin-4-ylethynyl)benzofuran-3(2H)-one], the inhibition at 0.1 µM at pim-1 kinase (Table 2) came out at 84%. Moreover, the inhibition at 1 µM in assay [1] (Table 7) stood at 99%.

`O=C1/C(=C/c2c[nH]c3ccccc23)Oc2c(CN3CCNCC3)cccc21` [Compound A56, (Z)-2-[(1H-indol-3-yl)methylene]-7-(piperazin-1-ylmethyl)benzofuran-3(2H)-one] returned an inhibition at 0.1 µM at pim-1 kinase (Table 1) of 80%. This compound also showed an inhibition at 1 µM in assay [1] (Table 6) of 43%.

Consider `COc1ccc2c(c1/C=C\C1CCNCC1)O/C(=C\c1n[nH]c3ccccc13)C2=O` [Compound B56, (Z)-2-[(1H-Indazol-3-yl)methylene]-6-methoxy-7-[(Z)-2-(piperidin-4-yl)vinyl]benzofuran-3(2H)-one], for which the inhibition at 0.1 µM at pim-1 kinase (Table 2) worked out at 95%. In addition, the inhibition at 1 µM in assay [1] (Table 7) was 99%.

Take `COc1ccc2c(c1CCCCC1CCNCC1)O/C(=C\c1n[nH]c3ccccc13)C2=O` [Compound B63, (Z)-2-[(1H-Indazol-3-yl)methylene]-6-methoxy-7-[4-(piperidin-4-yl)butyl]benzofuran-3(2H)-one]: on pim-1 kinase (Table 2), the inhibition at 0.1 µM stood at 95%. This compound had an inhibition at 1 µM in assay [1] (Table 7) of 95%.

Regarding `COc1ccc2c(c1CN1CCNCC1)O/C(=C\c1n[nH]c3ncccc13)C2=O` [Compound B69, (Z)-2-[(1H-Pyrazolo[3,4-b]pyridin-3-yl)methylene]-6-methoxy-7-(piperazin-1-ylmethyl)benzofuran-3(2H)-one], the inhibition at 0.1 µM against pim-1 kinase (Table 2) came to 95%. In assay [1] (Table 7), this compound displayed an inhibition at 1 µM of 100%.
